Reference: PubChem BioAssay AID1259408 (Genetic Toxicology Data Bank (GENE-TOX), 2018)
Activity calls are given as the source filed them. The rule behind the calls is not given here.

Test system: GENE-TOX genotoxicity assays, various organisms and cells
Experiment: GENE-TOX mutagenicity studies
Settings: for call: Assay Type: In vivo carcinogenicity studies
[1] = Species/Cell Type: Nonhuman, Assay Code: CCGT, Evaluation Type: Evaluation A (Pre-1980)
[2] = Species/Cell Type: Saccharomyces cerevisiae, Assay Type: Mitotic recombination or gene conversion, Assay Code: YEH+, Evaluation Type: Evaluation A (Pre-1980)
[3] = Species/Cell Type: Salmonella typhimurium (one or more of the five standard strains: TA98, TA100, TA1535, TA1537, and TA1538), Assay Type: Histidine reverse gene mutation, Ames assay, Assay Code: SAL+, Evaluation Type: Evaluation A (Pre-1980)
[4] = Species/Cell Type: Salmonella typhimurium, Assay Type: Forward and reverse gene mutation, host-mediated assay, Assay Code: HMA+, Evaluation Type: Evaluation A (Pre-1980)
[5] = Species/Cell Type: Syrian hamster embryo (SHE) cells, Assay Type: Cell transformation, clonal assay, Assay Code: CTC+, Evaluation Type: Evaluation A (Pre-1980)
[6] = Species/Cell Type: Nonhuman, Assay Code: CCG+L, Evaluation Type: Evaluation A (Pre-1980)
[7] = Species/Cell Type: Salmonella typhimurium (one or more of the five standard strains: TA98, TA100, TA1535, TA1537, and TA1538), Assay Type: Histidine reverse gene mutation, Ames assay, Assay Code: SALT, Evaluation Type: Evaluation A (Pre-1980)
[8] = Species/Cell Type: Mouse, Sex: Male, Assay Type: Sperm morphology, Assay Code: SPI-, Evaluation Type: Evaluation A (Pre-1980)
[9] = Species/Cell Type: Nonhuman, Assay Code: CCG+, Evaluation Type: Evaluation A (Pre-1980)
[10] = Species/Cell Type: Saccharomyces cerevisiae, Assay Type: Mitotic recombination or gene conversion, Assay Code: YEC+, Evaluation Type: Evaluation A (Pre-1980)
[11] = Species/Cell Type: Saccharomyces cerevisiae, Assay Type: Reverse gene mutation, Assay Code: YER+, Evaluation Type: Evaluation A (Pre-1980)
[12] = Species/Cell Type: Salmonella typhimurium (one or more of the five standard strains: TA98, TA100, TA1535, TA1537, and TA1538), Assay Type: Histidine reverse gene mutation, Ames assay, Assay Code: SAL-, Evaluation Type: Evaluation A (Pre-1980)
[13] = Species/Cell Type: Drosophila melanogaster, Assay Type: Sex-linked recessive lethal gene mutation, Assay Code: SRL-, Evaluation Type: Evaluation A (Pre-1980)
[14] = Species/Cell Type: Nonhuman, Assay Type: Sister-chromatid exchange (SCE) in vitro, Assay Code: SC2T, Evaluation Type: Evaluation B (Post-1980)
[15] = Species/Cell Type: Fischer rat embryo (RLV/1706) cells, Assay Type: Cell transformation, viral enhanced, Assay Code: CTR+, Evaluation Type: Evaluation A (Pre-1980)
[16] = Species/Cell Type: Nonhuman, Assay Type: Sister-chromatid exchange (SCE) in vitro, Assay Code: SC2+, Evaluation Type: Evaluation B (Post-1980)
[17] = Species/Cell Type: Mammalian polychromatic erythrocytes, Assay Type: Micronucleus test, chromosome aberrations, Assay Code: MNT+, Evaluation Type: Evaluation B (Post-1980)

Structure (SMILES): O=S1(=O)CCCCO1
- mutagenic call (Species/Cell Type: Escherichia coli polA (W3119 vs P3478), Assay Type: Rec-assay, DNA effects (bacterial DNA repair), Assay Code: RE1+, Evaluation Type: Evaluation A (Pre-1980)): active; positive
- call [1]: no conclusion
- mutagenic call [2]: active; positive
- mutagenic call [3]: active; positive
- mutagenic call [4]: active; positive
- mutagenic call (Species/Cell Type: Schizosaccharomyces pombe, Assay Type: Reverse gene mutation, Assay Code: YEZ+, Evaluation Type: Evaluation A (Pre-1980)): active; positive
- mutagenic call [5]: active; positive

Structure (SMILES): Cc1ccc2cc3c(ccc4ccccc43)c3c2c1C(O)C3 (centres undefined)
- mutagenic call (Species/Cell Type: Chinese hamster lung (V79) cells, Assay Type: Forward gene mutation at the HPRT or ouabain locus, Assay Code: V79+, Evaluation Type: Evaluation A (Pre-1980)): active; positive
- call [6]: active; positive
- mutagenic call [7]: no conclusion

Structure (SMILES): ClC(Cl)(Cl)Cl
- mutagenic call [8]: inactive; negative
- call [9]: active; positive
- mutagenic call [10]: active; positive
- mutagenic call [2]: active; positive
- mutagenic call [11]: active; positive
- mutagenic call [12]: inactive; negative

Structure (SMILES): NC(=O)c1ncn([C@@H]2O[C@H](CO)[C@@H](O)[C@H]2O)c1O
- mutagenic call (Species/Cell Type: Nonhuman, Assay Type: Sister-chromatid exchange (SCE) in vitro, Assay Code: SC2+D, Dose Response: With dose response, Evaluation Type: Evaluation A (Pre-1980)): active; positive

Structure (SMILES): O=C(O)CN(CC(=O)O)CC(=O)O
- mutagenic call [13]: inactive; negative
- mutagenic call (Species/Cell Type: Mouse, Sex: Male, Assay Type: Heritable translocation test, chromosome aberrations, Assay Code: HTT-, Evaluation Type: Evaluation A (Pre-1980)): inactive; negative
- call [9]: active; positive
- mutagenic call [14]: no conclusion
- mutagenic call (Species/Cell Type: Salmonella typhimurium (one or more of the five standard strains: TA98, TA100, TA1535, TA1537, and TA1538), Assay Type: Histidine reverse gene mutation, Ames assay, Assay Code: SALT, Evaluation Type: Evaluation B (Post-1980)): no conclusion
- mutagenic call (Species/Cell Type: Vicia faba, Assay Type: Chromosome aberrations, Assay Code: VIC+, Evaluation Type: Evaluation A (Pre-1980)): active; positive

Structure (SMILES): O=S1(=O)OCCO1
- mutagenic call [3]: active; positive
- mutagenic call [4]: active; positive

Structure (SMILES): CC(Cl)(Cl)Cl
- mutagenic call [15]: active; positive
- mutagenic call (Species/Cell Type: Mammalian polychromatic erythrocytes, Assay Type: Micronucleus test, chromosome aberrations, Assay Code: MNTT, Evaluation Type: Evaluation A (Pre-1980)): no conclusion
- mutagenic call [8]: inactive; negative
- call [1]: no conclusion
- mutagenic call [16]: active; positive

Structure (SMILES): Clc1cc(Cl)c(OCC#CI)cc1Cl
- mutagenic call (Species/Cell Type: Neurospora crassa, Assay Type: Aneuploidy, chromosome aberrations, Assay Code: NEN-, Evaluation Type: Evaluation A (Pre-1980)): inactive; negative

Structure (SMILES): CCCc1cc(=O)[nH]c(=S)[nH]1
- call [9]: active; positive

Structure (SMILES): NC=O
- mutagenic call (Species/Cell Type: Fischer rat embryo (RLV/1706) cells, Assay Type: Cell transformation, viral enhanced, Assay Code: CTR-, Evaluation Type: Evaluation A (Pre-1980)): inactive; negative
- mutagenic call (Species/Cell Type: Hordeum vulgare (barley), Assay Type: Chromosome aberrations, Assay Code: HOC+, Evaluation Type: Evaluation A (Pre-1980)): active; positive

Structure (SMILES): ClC(Cl)=C(Cl)Cl
- mutagenic call [15]: active; positive
- call [6]: active; positive
- mutagenic call [10]: active; positive
- mutagenic call [2]: active; positive
- mutagenic call [11]: active; positive
- mutagenic call (Species/Cell Type: Syrian hamster embryo (SA7/SHE) cells, Assay Type: Cell transformation, viral enhanced, Assay Code: CT7-, Evaluation Type: Evaluation A (Pre-1980)): inactive; negative

Structure (SMILES): Cc1cn([C@H]2CC[C@@H](COP(=O)(O)OP(=O)(O)OP(=O)(O)O)O2)c(=O)[nH]c1=O
- mutagenic call [14]: no conclusion

Structure (SMILES): COc1ccc(CCC(=O)c2c(O)cc(O[C@@H]3O[C@H](CO)[C@@H](O)[C@H](O)[C@H]3O[C@@H]3O[C@@H](C)[C@H](O)[C@@H](O)[C@H]3O)cc2O)cc1O
- mutagenic call [17]: active; positive
- mutagenic call (Species/Cell Type: Salmonella typhimurium, Assay Type: Forward and reverse gene mutation, host-mediated assay, Assay Code: HMA-, Evaluation Type: Evaluation A (Pre-1980)): inactive; negative

Structure (SMILES): C=COC=C
- mutagenic call [16]: active; positive

Structure (SMILES): Cc1cc(O)c2c(c1O)C(=O)c1cc(O)cc(O)c1C2=O
- mutagenic call [3]: active; positive

Structure (SMILES): Nc1ncc2[nH]cnc2n1
- mutagenic call (Species/Cell Type: Drosophila melanogaster, Assay Type: Sex-linked recessive lethal gene mutation, Assay Code: SRLT, Evaluation Type: Evaluation A (Pre-1980)): no conclusion
- mutagenic call (Species/Cell Type: Escherichia coli WP2 UVRA, Assay Type: Tryptophan reverse gene mutation, Assay Code: WPU+, Evaluation Type: Evaluation A (Pre-1980)): active; positive
- mutagenic call (Species/Cell Type: Mouse lymphoma (L5178Y) cells, Assay Type: Forward gene mutation at the thymidine kinase (TK) locus, chromosome aberrations, Assay Code: L51+, Evaluation Type: Evaluation A (Pre-1980)): active; positive
- mutagenic call (Species/Cell Type: Mouse, Sex: Female, Assay Type: Spot test, gene mutation, Assay Code: MST+, Evaluation Type: Evaluation A (Pre-1980)): active; positive
- mutagenic call (Species/Cell Type: Neurospora crassa, Assay Type: Forward gene mutation, Assay Code: NEF+, Evaluation Type: Evaluation A (Pre-1980)): active; positive
- call [1]: no conclusion
- mutagenic call (Species/Cell Type: Saccharomyces cerevisiae, Assay Type: Forward gene mutation, Assay Code: YEF+, Evaluation Type: Evaluation A (Pre-1980)): active; positive

Structure (SMILES): [O]=[Cr](=[O])([OH])[O][Cr](=[O])(=[O])[OH]
- mutagenic call (Species/Cell Type: Bacillus subtilis (H17 vs M45), Assay Type: Rec-assay, spot test, DNA effects (bacterial DNA repair), Assay Code: REW+, Evaluation Type: Evaluation A (Pre-1980)): active; positive
- mutagenic call (Species/Cell Type: Chinese hamster ovary (CHO) cells, Assay Type: Forward gene mutation at the HPRT locus, Assay Code: CHO+, Evaluation Type: Evaluation B (Post-1980)): active; positive
- mutagenic call (Species/Cell Type: Human lymphocytes, Assay Type: Sister-chromatid exchange (SCE) in vitro, Assay Code: SCL+D, Dose Response: With dose response, Evaluation Type: Evaluation B (Post-1980)): active; positive
- mutagenic call (Species/Cell Type: Human, Assay Type: Sister-chromatid exchange (SCE) in vitro, Assay Code: SC1+D, Dose Response: With dose response, Evaluation Type: Evaluation B (Post-1980)): active; positive
- mutagenic call [17]: active; positive
- mutagenic call (Species/Cell Type: Nonhuman, Assay Type: Chromosome aberrations in vitro, Assay Code: CY&+, Evaluation Type: Evaluation A (Pre-1980)): active; positive
- mutagenic call [16]: active; positive
- mutagenic call (Species/Cell Type: Nonhuman, Assay Type: Sister-chromatid exchange (SCE) in vitro, Assay Code: SC2+D, Dose Response: With dose response, Evaluation Type: Evaluation B (Post-1980)): active; positive
- mutagenic call [3]: active; positive
- mutagenic call [5]: active; positive

Structure (SMILES): CCCOP(=S)(OCCC)OP(=S)(OCCC)OCCC
- mutagenic call (Species/Cell Type: Bacillus subtilis (H17 vs M45), Assay Type: Rec-assay, spot test, DNA effects (bacterial DNA repair), Assay Code: REWT, Evaluation Type: Evaluation A (Pre-1980)): no conclusion
- mutagenic call [13]: inactive; negative
- mutagenic call (Species/Cell Type: Escherichia coli WP2 UVRA, Assay Type: Tryptophan reverse gene mutation, Assay Code: WPU-*, Activation: With metabolic activation, Evaluation Type: Evaluation A (Pre-1980)): inactive; negative
- mutagenic call (Species/Cell Type: Escherichia coli polA (W3119 vs P3478), Assay Type: Rec-assay, DNA effects (bacterial DNA repair), Assay Code: RE1T, Evaluation Type: Evaluation A (Pre-1980)): no conclusion
- mutagenic call (Species/Cell Type: Human diploid fibroblasts, Assay Type: Unscheduled DNA synthesis (UDS) in vitro, DNA effects, Assay Code: UDH-, Evaluation Type: Evaluation A (Pre-1980)): inactive; negative
- mutagenic call (Species/Cell Type: Saccharomyces cerevisiae, Assay Type: Mitotic recombination or gene conversion, Assay Code: YEH-, Evaluation Type: Evaluation A (Pre-1980)): inactive; negative
- mutagenic call [12]: inactive; negative

Structure (SMILES): Cc1c2ccccc2c(C)c2c1ccc1ccc(F)cc12
- mutagenic call (Species/Cell Type: Chinese hamster lung (V79) cells, Assay Type: Forward gene mutation at the HPRT or ouabain locus, Assay Code: V79-*, Activation: With metabolic activation, Evaluation Type: Evaluation A (Pre-1980)): inactive; negative

Structure (SMILES): Cc1cc(Cl)ccc1N
- call [9]: active; positive

Structure (SMILES): CCCOc1ccc(CC(=O)OC)cc1CSC(=N)N
- mutagenic call (Species/Cell Type: Saccharomyces cerevisiae, Assay Type: Reverse gene mutation, Assay Code: YERT, Evaluation Type: Evaluation A (Pre-1980)): no conclusion

Structure (SMILES): COc1ccc2c3c(n(CC=C(C)C)c2c1)[C@H](C=C(C)C)N1C(=O)[C@@H]2CCCN2C(=O)[C@]1(O)[C@H]3O
- mutagenic call [7]: no conclusion

Structure (SMILES): [Cl][Fe]([Cl])[Cl]
- mutagenic call (Species/Cell Type: Bacillus subtilis (H17 vs M45), Assay Type: Rec-assay, spot test, DNA effects (bacterial DNA repair), Assay Code: REW-, Evaluation Type: Evaluation A (Pre-1980)): inactive; negative
